We go through 3 compounds from US20200253917A1 (priority 2017, published 2020).

Experiment [1] deals with hair cycle. It counts as in vivo. The note with it: mice shaved at day 50 (Telogen); for pigmentation in response to treatment: topical every other day for 2-3 weeks. The procedure: (§1) FIG. 1A: Mice were shaved at day 50 (Telogen) and topically treated with Phenformin (5 uM) every other day for 2-3 weeks. […] FIG. 1B: Quantification of changes to the hair cycle in treatment and control. Quantification performed across 13 vehicle and 9 Phenformin treated male mice. FIG. 1C: Changes to the thickness of the epidermis, dermis and hypodermis were assessed microscopically and quantified. […] Scale bars for D indicate 25 micrometers.
(§2) FIG. 3A: Mice were shaved at day 50 (Telogen) and topically treated with antimycin A or Rotenone every other day for 2-3 weeks. […] FIG. 3B: Quantification of changes to the hair cycle in treatment and control. Quantification was performed with 13 vehicle treated, 11 Rotenone treated, and 9 Antimycin A treated male animals. FIG. 3C: Changes to the thickness of the epidermis, dermis and hypodermis were assessed microscopically and quantified. FIG. 3D: Immunolocalization was performed to detect evidence of inflammation due to topical application of ETC inhibitors. Both vehicle and ETC inhibitor treated skin was immunostained for phosphor-EGFR ([…]), CD11b (marker of macrophages), and IL6 (Chemokine). Vehicle treated skin from a wounded animal with hyperplastic epidermis was used as a positive control for markers of inflammation. Scale bars indicate 50 micrometers.
To determine whether manipulation of ETC activity could affect HFSC activation, various inhibitors of ETC components were topically applied to mice during a resting phase of the hair cycle. The topical formulation was prepared by suspending the active ingredient in PLO Ultramax Gel (lecithin organogel). At postnatal day 50, the hair follicle is in telogen, a resting phase where the stem cells of the follicle are quiescent until the start of the next hair cycle at day 70-80. Rotenone, Phenformin, and Antimycin A are established inhibitors of […], respectively. Animals were shaved at postnatal day 47 and treated with the indicated compounds or vehicle on the shaved area every 48 hours for the indicated duration. […]

A further experiment has as its system hair follicles. It counts as in vivo. The note with it: backskin of topically treated telogen mice. The procedure: as §1, §2
These findings were also in stark contrast to previous studies showing that transgenic abrogation of the ETC led to hair follicle degeneration.

The subject of experiment [2] is hair follicle stem cells (HFSCs). It counts as in vivo, mice. The note with it: topically treated skin, a week after treatment.
Experiment [3] has as its system lactate. It counts as in vivo, mice. The note with it: topical treatment for 48 hours or 10 days. The protocol:
FIG. 2A: Mice were treated topically with the indicated ETC inhibitor for 48 hours. Total epidermis was isolated, lysed and subjected to LDH activity assay. Relative LDH activity is presented as the rate of activity over 30 min in two different animals. FIG. 2B: Mice were treated topically with ETC inhibitor for 48 hours (TOP) or 10 days (BOTTOM). Total epidermis was isolated, and metabolites were extracted and subjected to metabolomics. Heatmap indicates relative levels of metabolites related to glycolysis and the TCA cycle.
To determine the effect on cellular metabolism of ETC inhibition by Rotenone, Phenformin and Antimycin A, two measures of metabolic pathways were performed. First, LDH activity was quantified on cells isolated from the epidermis treated with ETC inhibitors for 48 hours (FIG. 2A). Next, metabolomics was employed on sorted HFSCs with and without treatment for either 48 hours or 10 days.

For experiment [4], the system named is hair cycle. It counts as in vivo. The note with it: aged mice (at least 17 months), topical every other day for 30 days. The source says:
(§3) FIGS. 4A and 4B. Treatment with ETC inhibitors can accelerate the hair cycle in aged mice. FIG. 4A: Female mice were shaved at 17 months of age and then treated with vehicle or the indicated ETC inhibitor every other day for up to 30 days. Images taken over time indicate the ETC inhibition promotes a more complete re-growth of hair after shaving in aged mice. Quantification of phenotype emergence from two pairs of animals are presented on the right. Data shown are representative of three independent experiments with 10 mice each.
(§4) As mice age, the hair cycle is known to become protracted such that upon shaving, only portions of the backskin show regrowth of hair within a 1-2 months. Various batches of aged mice (at least 17 months) were treated for 30 days with ETC inhibitors to determine whether this metabolic manipulation could stimulate the hair cycle even in dormant follicles.

Experiment [5] deals with lactate. It counts as in vivo. The following applies: aged mice, sorted HFSCs at the end of the hair cycle experiment.
Source text: as §3, §4

As for `C=C(C)[C@H]1Cc2c(ccc3c2O[C@@H]2COc4cc(OC)c(OC)cc4[C@@H]2C3=O)O1` [Rotenone], the “pigmentation in response to treatment” value with hair cycle [1] was “new pigmentation”. Moreover, in the experiment on hair follicles, the “H and E staining / histological analysis of the hair cycle” value (from here on “H and E staining / histological analysis”) is given as “advancement of the hair cycle”. Further, the “HFSC activation (Sox9 and Ki-67 immunohistochemistry)” value (“HFSC activation” for short) in experiment [2] is “HFSCs became activated”. The “lactate levels and glycolytic intermediates (metabolomics)” value with lactate [3] is recorded as “increase in lactate levels as well as several other glycolytic intermediates”. For the same compound, the “hair regrowth across the backskin after shaving” value in the experiment on hair cycle [4] was “more complete hair regrowth across the entire backskin”. In the experiment on lactate [5], the “lactate pool levels (metabolomics)” value is given as “increase in lactate pool levels”.

Regarding Antimycin A, the “pigmentation in response to treatment” value in the experiment on hair cycle [1] is listed as “new pigmentation”. The “H and E staining / histological analysis” value in the experiment on hair follicles is on record as “advancement of the hair cycle”. Besides, the “HFSC activation” value in experiment [2] is reported as “HFSCs became activated”. For the same compound, the “lactate levels and glycolytic intermediates (metabolomics)” value with lactate [3] is “increase in lactate levels as well as several other glycolytic intermediates”. The “hair regrowth across the backskin after shaving” value in the experiment on hair cycle [4] is “more complete hair regrowth across the entire backskin”. For the same compound, in the experiment with lactate [5], the “lactate pool levels (metabolomics)” value is listed as “increase in lactate pool levels”.

In the case of `[H]/N=C(/N)N/C(=N/[H])NCCc1ccccc1` [Phenformin], the “pigmentation and hair growth in response to treatment” value in the experiment on hair cycle [1] (topical Phenformin 5 uM every other day for 2-3 weeks, at 10 and 16 days) was “new pigmentation and then hair growth”. In the experiment on hair follicles, the “H and E staining / histological analysis” value is “advancement of the hair cycle”. In experiment [2], the “HFSC activation” value is reported as “HFSCs became activated”. For the same compound, the “lactate levels and glycolytic intermediates (metabolomics)” value in the experiment with lactate [3] is listed as “increase in lactate levels as well as several other glycolytic intermediates”. Also, in the experiment on hair cycle [4], the “hair regrowth across the backskin after shaving” value was “more complete hair regrowth across the entire backskin”. Also, in the experiment with lactate [5], the “lactate pool levels (metabolomics)” value is given as “increase in lactate pool levels”.
